experiment: Time to complete dissolution of compressed tablets of bulking agents/compression binders in water; type: physicochemical; settings: 750 mg tablet, 12 mm diameter, pressed at 32 kN, 1.5 L water in 2 L beaker, room temperature (69° F.)
Excerpt: To compare the speed of dissolution of any ingredients acting as a binder and/or bulking agent to the speed of dissolution of isomalt, a tablet can be formed of each and the time of dissolution for each can be measured. As used herein, the term “rate of dissolution” when comparing one or more binder and bulking agent ingredients to isomalt refers to the following procedure. The tablets should have the same diameter, shape, and weight and should be prepared by pressing with the same compression force (e.g., 32 kN) using a tablet press. Two equal beakers (e.g., 2 L) each containing an equal amount of distilled water (e.g., 1.5 L) and each at the same room temperature (i.e., at 69° F.) and atmospheric pressure are prepared. One tablet containing isomalt (commercially available FCC or USP grade isomalt particles) is placed in one of the beakers of water. The other tablet formed of the test binder and/or bulking agent are placed in the other of the beakers of water. The two beakers are then visually observed to determine which of the tablets dissolves completely first.
To identify suitable bulking agents and compression binders that dissolve quickly enough to allow suitable release of the preferred amount of antacid particles having low solubility in saliva, tablets of equal diameter (12 mm) and a weight of 750 mg±4 mg were made with commercially available particles of the bulking agents and/or compression binders listed in the table below, each compressed using a tablet press by placing the ingredients in a die and pressing with an equal pressure of 32 kN±3 kN to form the tablets. The tablets were simultaneously placed in equal size beakers (2 L) each containing an equal amount of water (1.5 L±15 mL) at room temperature (69° F.) and the time to complete dissolution was measured for each tablet. The dissolution times are shown below.

Dissolution time [min]	Compound
38	Isomalt
50	OC[C@@H](O)[C@@H](O)[C@H](O)[C@H](O)CO [Mannitol]
20	OC[C@@H](O)[C@@H](O)[C@H](O)[C@@H](O)CO [Sorbitol]
29	OC[C@@H](O)[C@@H](O[C@H]1O[C@H](CO)[C@@H](O)[C@H](O)[C@H]1O)[C@H](O)[C@@H](O)CO [Maltitol]

Reference: patent publication US12485089B1, “Adhering lozenge with high amount of sparsely soluble active ingredient” (Quest Products, LLC, priority 2025, dated 2025)
